Experimental data taken from PMC5341405, “Lapachol, a compound targeting pyrimidine metabolism, ameliorates experimental autoimmune arthritis” (Arthritis Research & Therapy, 2017).

How the values were obtained:
murine CD4 T cells = experiment: Proliferation assay of murine CD4 T cells (dye dilution, flow cytometry); type: cell-based, C57BL/6 mice
From the text: (§1) Human CD4 T cells were purified from the whole blood of healthy volunteers. Briefly, peripheral blood mononuclear cells (PBMCs) were isolated by Percoll gradient (Sigma-Aldrich, St. Louis, MO, USA). CD4 T cells were isolated from PBMCs using Isolation Kit (Miltenyi Biotec, Bergisch Gladbach, Germany). For murine CD4 T cells, lymph nodes from naive C57BL/6 male mice were harvested, and CD4 T cells were purified using Isolation Kit (Miltenyi Biotec, Bergisch Gladbach, Germany) according to the manufacturer’s recommendations.
(§2) A total of 1 × 10^5 CD4 T cells were labeled with 1 μM Dye Efluor® 670 (eBioscience, San Diego, CA, USA) for 15 min at 37 °C and cultured in RPMI-1640 10% FBS for 4 days in a 96-well U-bottom plate (Falcon, Franklin Lakes, New Jersey, USA) with the LAP salt diluted in RPMI-1640 (10, 30, and 100 μM), LEF diluted in RPMI-1640 (10, 30, and 100 μM; Arava®, Sanofi, France) and/or uridine (30, 100, and 300 μM; Sigma-Aldrich, St. Louis, MO, USA) in the presence of anti-CD3 (3 μg/ml) and anti-CD28 (1.5 μg/ml). The proliferation of CD4 T cells was determined by dye dilution in flow cytometry analysis. The results were expressed as the percentage of suppression using the following formula: [proliferation of CD4 T cells only – (proliferation of T CD4 cells with LEF or LAP)/proliferation of CD4 T cells only] × 100.

human CD4 T cells [1] = experiment: Proliferation assay of human CD4 T cells (dye dilution, flow cytometry); type: cell-based
From the text: as §1, §2

human CD4 T cells [2] = experiment: Annexin-V/propidium iodide staining for apoptotic cell death; type: cell-based; settings: human CD4 T cells, 10, 30, and 100 μM
Experimental: We next assessed the antiproliferative effect of LAP. To this end, freshly isolated mouse CD4 T cells were labelled with Dye Efluor 670 and stimulated with anti-CD3/CD28 in the presence of LAP or LEF (10, 30, and 100 μM) for 4 days. […] We also investigated the effect of LAP in human CD4 T cells isolated from the peripheral blood of healthy donors. […] Additionally, we performed annexin-V/propidium iodide (PI) staining of human CD4 T cells treated with LAP or LEF to assess apoptotic cell death. […] Thus, the reduction of T-cell proliferation by LAP below 100 μM was primarily due to inhibition of the proliferative response rather than a reduction of cellular viability by toxicity.

[3] = Tolerability and serum liver enzymes during CIA protocol; type: in vivo, DBA1/J mice
Experimental: Male DBA/1 J mice were injected i.d. at the base of the tail with 200 μg bovine type II collagen (CII; a gift from Dr. David D. Brand, University of Tennessee Health Science Center) emulsified in Freund’s complete adjuvant (CFA) on day 0. Mice were boosted i.d. with CII (200 μg emulsified in Freund’s incomplete adjuvant (IFA)) on day 21. Mice were monitored daily for signs of arthritis. Scores were assigned based on erythema, swelling, or ankylosis present in each paw on a scale of 0 to 3, giving a maximum score of 12 per mouse. After arthritis induction, mice were treated orally with LAP (3 mg/kg and 10 mg/kg) or LEF (3 mg/kg) or saline daily. The clinical score was addressed every day after collagen boost. All mice were euthanized for histologic assessment of the hind limbs 4 weeks after the boost.
Serum concentrations of aspartate aminotransferase (AST) or alanine aminotransferase (ALT) were measured using commercial kits according to the manufacturer’s instructions (ID Labs Biotechnology Inc., London, Canada).

DHODH = tested on: DHODH; parameters: method as in PMID 10658902; settings: cited from earlier work
human keratinocytes = tested on: human keratinocytes; parameters: method as in PMID 10479319; settings: in vitro; cited from earlier work
[4] = 10, 30, and 100 μM, 4 days, anti-CD3/CD28

Q: With `CC(C)=CCC1=C(O)C(=O)c2ccccc2C1=O` [LAP, 2-hydroxy-3-(3methyl-2-butenyl)-1,4-naphthoquinone] as the molecule, how does the “effect on proliferation of murine CD4 T cells” value (murine CD4 T cells; [4]) read?
A: The value was “inhibited the proliferation of murine CD4 T cells in a dose-dependent manner”.

Q: What about the “suppression of proliferation compared with LEF” value (murine CD4 T cells; murine CD4 T cells, same equivalent concentrations) of the same molecule?
A: Its value is “greater ability to suppress the proliferation”.

Q: And the “effect on proliferation of human CD4 T cells” value (human CD4 T cells [1]; [4])?
A: The value was “dose-dependent inhibition of human T-cell proliferation”.

Q: What about the “suppression of proliferation compared with LEF” value (human CD4 T cells [1]; human CD4 T cells, same equivalent concentrations) of the same molecule?
A: Its value is “greater ability to suppress the proliferation”.

Q: And the “antiproliferative effect in the presence of uridine” value (human CD4 T cells [1]; human CD4 T cells, uridine 30, 100, and 300 μM)?
A: Its value is “uridine was able to reverse the antiproliferative effect of LAP in a dose-dependent manner”.

Q: And the “toxicity (apoptotic cell death, annexin-V/PI)” value (human CD4 T cells [2])?
A: The value was “only the highest concentration of LAP (100 μM) was toxic”.

Q: What about the “serum levels of ALT or AST” value ([3]; 3 mg/kg and 10 mg/kg orally daily, CIA protocol, 4 wk after boost) of the same molecule?
A: The value was “did not alter the serum levels of ALT or AST”.

Q: What about the “tolerability (general symptoms of toxicity: piloerection, diarrhea, weight loss, prostration)” value ([3]; 3 mg/kg and 10 mg/kg orally once a day for 4 weeks, CIA mice) of the same molecule?
A: Its value is “well tolerated without apparent side effects”.

Q: What about the “inhibition of DHODH activity” value (DHODH) of the same molecule?
A: The value was “can inhibit DHODH activity”.

Q: And the “proliferation of human keratinocytes” value (human keratinocytes)?
A: The value was “can reduce proliferation of the human keratinocytes”.
